From patent US20080014253A1, “Lipid-Based Drug Delivery Systems Containing Unnatural Phospholipase A2 Degradable Lipid Derivatives and the Therapeutic Uses Thereof” (priority 2004, published 2008)

Molecular target: T1, PLA2 (A. piscivorus piscivorus) (Agkistrodon piscivorus piscivorus, UniProt P51972)
T1 sequence (P51972 1-123): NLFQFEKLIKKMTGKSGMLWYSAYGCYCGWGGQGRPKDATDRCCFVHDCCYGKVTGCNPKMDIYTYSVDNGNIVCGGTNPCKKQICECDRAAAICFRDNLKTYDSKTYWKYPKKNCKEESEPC
Assay: PLA2 hydrolysis of unilamellar liposomes (lag time, degree of lipid hydrolysis by HPLC)
Type: biochemical
Details: for degree of PLA2 lipid hydrolysis: 1000 s after the unset of the burst, HPLC, broad temperature range
Protocol: FIG. 4. Characteristic reaction time profiles at 40° C. for PLA2 hydrolysis of unilamellar. (A) 0.15 mM 1-O-DPPC′ liposomes incubated with 150 nM PLA2 (A. piscivorus piscivorus). (B) 0.15 mM 1-O-DPPG′ liposomes incubated with human secretory PLA2 from 20 μL freshly prepared human tear fluid (B). The PLA2 hydrolysis reaction is monitored by intrinsic fluorescence (solid line) from the enzyme and 90° static light scattering (dashed lines) from the lipid suspension. After adding PLA2 to the equilibrated liposome suspension a characteristic lag time, τ, follows before a sudden increase in the catalytic activity takes place (A).
FIG. 5. PLA2 (A. piscivorus piscivorus) lag time, τ, as a function of temperature for the hydrolysis of 1-O-DPPC′ unilamellar liposomes incorporated with 0 mol % (▪), 2 mol % (▴), and 10 mol % (∘) 1-O-DPPG′ lipids, and 5 mol % (V) DSPE-PEG2000 polymer lipids. The concentration of the liposomes was 0.15 mM and the concentration of PLA2 was 150 nM.
FIG. 6. (A) PLA2 (A. piscivorus piscivorus) hydrolysis of 1-O-DPPC′ liposomes containing 0 mol % (▪), 2 mol % (▴), and 10 mol % (∘) 1-O-DPPG′ lipids, and 5 mol % (▾) DSPE-PEG2000 polymer lipids determined by HPLC [28]. The percent lipid hydrolysis is determined 1000 s after the unset of the burst. The concentration of the liposomes was 0.15 mM and the concentration of PLA2 was 150 nM. (B) Hydrolysis of 1-O-DPPG′ unilamellar liposomes determined by HPLC [28]. The PLA2 catalyzed lipid hydrolysis is determined as a function of time after addition of 20 μL freshly prepared human tear fluid to 0.15 mM 1-O-DPPG′ liposomes.
By replacing the ester linkage in the C-1 position with an ether bond, these unnatural phospholipids can furthermore be used as novel prodrug anticancer lipids to make liposomal microcarriers that can be degraded to active anticancer lysoetherlipids by PLA2 [27]. […] The PLA2 lag time measurements on 1-O-DPPC′ unilamellar liposomes incorporated with small amounts of 1-O-DPPG′ or DSPE-PEG2000 lipids were performed in the gel-to-fluid main phase transition range and the degree of lipid hydrolysis was analyzed using HPLC techniques.
Typical PLA2 (A. piscivorus piscivorus) hydrolysis time course profiles obtained at 40° C. are shown in FIG. 4 for 1-O-DPPC′ and 1-O-DPPG′ unilamellar liposomes. […] The rapid increase in PLA2 activity is reflected by a sharp rise in the intrinsic PLA2 tryptophan fluorescence intensity followed by a concomitant decrease in the 90° static light scattering caused by a change in the morphology of the lipid system when a large amount of the phospholipids are converted to non-bilayer forming lysolipids and free fatty acids. […] Both the fluorescence and light scattering data clearly indicate that the unnatural phospholipids are excellent substrates for PLA2 catalyzed hydrolysis. […]

Molecule	PLA2 lag time, τ (0.15 mM unilamellar liposomes, 150 nM PLA2, 40° C.)	PLA2 lag time (1-O-DPPC′ liposomes incorporated with 5 mol % DPPE-PEG2000 lipopolymers)	degree of PLA2 lipid hydrolysis
CCCCCCCCCCCCCCCCOC[C@@H](COC(=O)CCCCCCCCCCCCCCC)OP(=O)([O-])OCC[N+](C)(C)C [1-O-DPPC′, (S)-1-O-hexadecyl-3-hexadecanoyl-glycero-2-phosphocholine]	observed	very short lag time	remarkably high degree of lipid hydrolysis
(S)-1-O-hexadecyl-3-hexadecanoyl-glycero-2-phosphoglycerol [1-O-DPPG′]			remarkably high degree of lipid hydrolysis
